Paper PMC13316043, “Structural basis of NSD2 degradation via targeted recruitment of SCF-FBXO22” (Nature Communications, 2026)

Target: T1, NSD2 (U2OS NSD2-HiBiT cells) (Homo sapiens, UniProt O96028)
T1 construct: RNPs were introduced into U2OS cells by electroporation; endogenous in cells; host or cells: U2OS NSD2-HiBiT clone P112 (CRISPR knock-in)
T1 sequence (O96028 1-1365): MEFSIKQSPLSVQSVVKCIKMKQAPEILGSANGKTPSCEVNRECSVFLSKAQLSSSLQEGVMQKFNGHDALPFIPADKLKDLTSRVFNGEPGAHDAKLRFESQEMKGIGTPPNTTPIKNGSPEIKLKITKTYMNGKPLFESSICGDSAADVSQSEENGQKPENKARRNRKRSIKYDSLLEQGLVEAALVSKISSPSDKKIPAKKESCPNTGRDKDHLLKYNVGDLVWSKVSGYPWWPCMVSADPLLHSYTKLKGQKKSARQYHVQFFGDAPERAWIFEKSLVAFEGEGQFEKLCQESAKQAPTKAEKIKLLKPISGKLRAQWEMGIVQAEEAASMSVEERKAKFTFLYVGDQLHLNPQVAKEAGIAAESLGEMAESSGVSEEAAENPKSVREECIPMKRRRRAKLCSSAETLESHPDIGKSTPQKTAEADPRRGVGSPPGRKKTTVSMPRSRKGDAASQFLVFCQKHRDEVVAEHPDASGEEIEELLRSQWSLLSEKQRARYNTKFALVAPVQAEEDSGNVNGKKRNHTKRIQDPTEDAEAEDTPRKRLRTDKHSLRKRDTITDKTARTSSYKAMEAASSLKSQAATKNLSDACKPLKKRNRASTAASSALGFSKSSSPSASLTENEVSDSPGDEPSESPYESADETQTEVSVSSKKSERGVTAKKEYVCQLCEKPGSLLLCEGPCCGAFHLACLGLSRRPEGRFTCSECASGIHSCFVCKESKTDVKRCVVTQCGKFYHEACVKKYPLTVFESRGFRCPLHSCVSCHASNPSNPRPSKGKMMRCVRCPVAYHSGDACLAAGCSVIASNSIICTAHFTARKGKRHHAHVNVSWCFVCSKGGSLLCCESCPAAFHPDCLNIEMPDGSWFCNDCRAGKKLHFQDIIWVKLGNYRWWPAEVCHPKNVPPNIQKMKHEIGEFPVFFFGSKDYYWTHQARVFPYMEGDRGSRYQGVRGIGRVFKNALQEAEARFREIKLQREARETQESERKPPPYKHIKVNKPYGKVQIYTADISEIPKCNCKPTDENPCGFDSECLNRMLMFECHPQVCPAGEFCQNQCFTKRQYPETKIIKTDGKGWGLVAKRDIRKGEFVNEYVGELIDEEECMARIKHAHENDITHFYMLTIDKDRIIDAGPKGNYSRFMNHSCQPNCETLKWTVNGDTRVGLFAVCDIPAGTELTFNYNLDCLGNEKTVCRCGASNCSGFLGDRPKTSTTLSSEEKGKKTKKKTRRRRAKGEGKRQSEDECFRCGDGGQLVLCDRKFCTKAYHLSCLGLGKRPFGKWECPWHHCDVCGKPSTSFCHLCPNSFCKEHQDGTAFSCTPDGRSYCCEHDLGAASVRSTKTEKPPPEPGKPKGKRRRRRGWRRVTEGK
Test: NSD2 HiBiT degradation assay
Format: cell-based
Conditions: for NSD2 Remaining (%) / reduction of NSD2 levels: U2OS NSD2-HiBit cells, 1 µM, 6 h; for DC50: dose-response, read-out: DC50 (concentration at which 50% of NSD2 is degraded)
Excerpt: The NSD2 genomic sequence was obtained from the UCSC genome browser and used to design sgRNAs to introduce HiBiT tags at either the 5’ or 3’ ends of the gene. sgRNA were assembled into RNPs using TrueCut Cas9 Protein v2 (Invitrogen, Cat#A36497), an sgRNA crRNA:tracrRNA duplex (below; IDT) and ssODN (below; IDT). RNPs were introduced into U2OS cells by electroporation using a Neon XT electroporation system (1750 V, 10 ms, 3 pulses) in R-buffer, using Thermo Fisher Neon transfection kit (Cat# MPK1025K) and according to the manufacturer's protocol. After plating for recovery for four days, single cell clones limited dilution cloning. Single cell clones that grew out were identified as containing integrated HiBiT tags on NSD2 by performing HiBiT assays using HiBiT lytic assay (Promega: N3040) and read on a plate reader. Clones were further confirmed by PCR analysis.
To test compounds for NSD2 degradation, a compound plate was prepared by diluting compounds in DMSO into cell media in a 384-deep-well plate (Revvity). Then, 6 µL of the diluted compounds were transferred into the well of the 384-well assay plate (Corning). 24 µL of the NSD2 HiBiT U2OS P112 cells or parental U2OS cells (3000 cells/well) were added to each well to make a final volume of 30 µL with a 0.1% final DMSO concentration. For multiple time points, multiple assay plates were made and incubated in the incubator at 37 °C in 5% CO2 for 3/6/12/24/48 hrs. 10 min before the reading, the assay plate and the Nano-Glo HiBiT Lytic Detection System (Promega) were brought to room temperature. The HiBiT lytic reagent master mix was prepared according to the product instructions and added to the assay plate. The plate was then incubated on an orbital shaker for 5 min at room temperature, equilibrated for 10 min, and then read using the GloMax luminometer (Promega) for luminescence detection. Compound treatment was normalized to the DMSO control with the background subtraction using the parental U2OS cell line as the background control, plated alongside the HiBiT U2OS P112 cells. The data and graphs were then analyzed and generated using GraphPad Prism (v 10.4.1). DC50 and Dmax were calculated by fitting the data to a non-linear regression curve.

Row | fold more potent (DC50) than UNC8732 (U2OS NSD2 HiBit cells) | fold more potent (DC50) than UNC10415667 (U2OS NSD2 HiBit cells) | Compound | NSD2 Remaining (%) | reduction of NSD2 levels | DC50 (U2OS NSD2 HiBit cells) | fold more potent (DC50) than UNC8732 and UNC10088 (U2OS NSD2 HiBit cells)
1 | ~ 10 fold | ~ 4 fold | Cc1cc(C=O)ccc1C(=O)N1CCc2cc(NC(=O)c3ccc(CN(C(=O)c4ccc5c(c4)OCC(=O)N5)C4CC4)cc3)ccc2C1 [UNC12149] | 7.4% | greater than 90% | 120 nM | –
2 | – | – | O=Cc1ccc(C(=O)N2CCc3cc(NC(=O)c4ccc(CN(C(=O)c5ccc6c(c5)OCC(=O)N6)C5CC5)cc4)ccc3C2)cc1 [UNC10415667] | 20% | about 75% | 460 nM | about 2 fold
